Measurements as given in ChEMBL document CHEMBL5029195, “Substituted Imidazole Carboxamides as Novel Antibacterial Agents” (2022).

Columns and labels:
[1] = system: Acinetobacter baumannii; assay: Antibacterial activity against Acinetobacter baumannii ATCC 17978 assessed as inhibition of bacterial growth after 16 hrs by two fold dilution method; format: functional
[2] = system: Acinetobacter baumannii; assay: Antibacterial activity against Acinetobacter baumannii ATCC 17961 assessed as inhibition of bacterial growth after 16 hrs by two fold dilution method; format: functional

Compound | IC90 [1] [nM] | IC90 [2] [nM]
COc1ccc(-c2cnc(C(=O)Nc3ccc(C(=O)N4CCC(CN)CC4)c(Cl)c3)n2C)c(F)c1F | 300 | –
Cn1c(-c2ccc(OC(F)F)c(F)c2F)cnc1C(=O)Nc1ccc(C(=O)N2CCC(C(=O)NC[C@H]3CCNC3)CC2)c(Cl)c1 | – | 40
COc1ccc(-c2cnc(C(=O)Nc3ccc(C(=O)N4CCC(C(=O)[C@H]5CCNC[C@H]5O)CC4)c(Cl)c3)n2C)c(F)c1F | – | 90
Cn1c(-c2ccc(OCC#N)c(F)c2F)cnc1C(=O)Nc1ccc(C(=O)N2CCC(C(=O)N3CCSCC3)CC2)c(Cl)c1 | 210 | –
CN(C)CCCN1CCN(C(=O)c2ccc(NC(=O)c3ncc(-c4ccc(OCC#N)c(F)c4F)n3C)cc2Cl)CC1 | 70 | –
COc1ccc(-c2cnc(C(=O)Nc3ccc(C(=O)N4CCN(C(=O)[C@@H]5C[C@@H](O)CN5)CC4)c(Cl)c3)n2C)c(F)c1F | 100 | –
Cn1c(-c2ccc(OC(F)F)c(F)c2F)cnc1C(=O)Nc1ccc(C(=O)N2CCC(C(=O)N3CCC(C(N)=O)C3)CC2)c(Cl)c1 (centres undefined) | – | 150
CCc1cc(NC(=O)c2ncc(-c3ccc(OC)cc3Cl)n2C)ccc1C(=O)N1CCN(CCNC)CC1 | 2300 | –
COc1ccc(-c2cnc(C(=O)Nc3ccc(C(=O)N4CCC(OCCN)CC4)c(Cl)c3)n2C)c(F)c1F | – | 40
CNCCN1CCN(C(=O)c2ccc(NC(=O)c3ncc(-c4ccc(OC)c(F)c4F)n3C)cc2Cl)CC1 | 80 | –
COc1ccc(-c2cnc(C(=O)Nc3ccc(C(=O)N4CCC(CCN)CC4)c(Cl)c3)n2C)c(F)c1F | – | 30
COc1ccc(-c2cnc(C(=O)Nc3ccc(C(=O)N4CCC(C(=O)[C@@H]5CCNC[C@H]5O)CC4)c(Cl)c3)n2C)c(F)c1F | – | 100
CCc1cc(NC(=O)c2ncc(-c3ccc(OC)c(F)c3F)n2C)ccc1C(=O)N1CCN(CCCN(C)C)CC1 | – | 260
COc1ccc(-c2cnc(C(=O)Nc3ccc(C(=O)N4CCC(C(=O)NCCC(=O)O)CC4)c(Cl)c3)n2C)c(F)c1F | – | 3300
